In brackets after ≈: the same amount, converted by molar mass.
Assays:
[1] = biological target: T1, glucocerebrosidase (Gcase) (Homo sapiens, UniProt P04062); test: Glucocerebrosidase (Gcase) activation assay, 4-methylumbelliferyl-beta-D-glucopyranoside substrate, with saposin C; format: biochemical; conditions: 10 nM GCase, 100 nM saposin C, pH 4.7; for activation at 0.1 µM: 0.1 μM test compound, read-out: Percent Gease Activation 0.1 μM Test Compound; for activation at 1 µM: 1 μM test compound, read-out: Percent Gease Activation 1 μM Test Compound
T1 construct: micellar solution containing 10 nM GCase and 100 nM saposin C
T1 sequence (P04062 40-536): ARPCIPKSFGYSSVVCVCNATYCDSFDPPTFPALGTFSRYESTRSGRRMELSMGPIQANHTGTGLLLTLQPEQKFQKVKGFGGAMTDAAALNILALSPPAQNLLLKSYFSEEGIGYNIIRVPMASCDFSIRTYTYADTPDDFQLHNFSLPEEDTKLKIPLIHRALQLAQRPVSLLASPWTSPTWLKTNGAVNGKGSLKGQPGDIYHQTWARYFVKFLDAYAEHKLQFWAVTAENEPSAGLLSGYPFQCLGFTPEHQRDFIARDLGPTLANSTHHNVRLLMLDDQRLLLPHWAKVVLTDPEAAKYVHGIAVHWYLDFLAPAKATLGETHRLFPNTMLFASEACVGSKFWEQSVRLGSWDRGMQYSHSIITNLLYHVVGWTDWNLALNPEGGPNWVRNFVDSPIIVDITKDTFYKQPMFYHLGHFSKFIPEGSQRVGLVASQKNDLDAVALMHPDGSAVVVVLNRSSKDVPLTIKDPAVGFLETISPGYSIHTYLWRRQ
Method: The ability of exemplary compounds to activate glucocerebrosidase (Gcase) was measured.
A 484 μL aliquot of a 1.0 mg/mL solution of phosphatidylserine (PS) (Sigma P7769) in chloroform was evaporated under a stream of nitrogen for 1 hour. The lipid film was dissolved over 4 minutes of vigorous vortexing in 40 mL of 176 mM K2HPO4/50 mM citric acid (pH 4.7) containing 7.5 μL of triton X-100, resulting in a mixed micellar preparation with a composition of 0.32 mM triton and 0.37 mol % PS. 4-Methylumbelliferyl-beta-D-glucopyranoside (ACROS-337025000) was dissolved in the micellar solution to a final concentration of 2 mM for use as the reaction substrate.
Test compounds were diluted to the desired concentrations with dimethylsulfoxide (DMSO) from 10 mM stocks, and 0.41 μL of the DMSO compound mixture was added to 100 μL of micellar solution containing 10 nM GCase and 100 nM saposin C (Enzo ALX-201-262-C050). Pre-incubation was allowed to occur for 30 minutes at room temperature, after which the reaction was initiated by combining 25 μL of substrate solution with 25 μL of compound/GCase/saposin mixture. The reaction proceeded for 15 minutes at room temperature and was stopped by adding 150 μL of 1M glycine, pH 12.5. The endpoint of the reaction was monitored by measuring fluorescence intensity (excitation: 365 nm; emission: 440 nm) on a SpectraMax i3 instrument (Molecular Devices). Test compounds were screened at 1.0 and 0.1 μM final concentration, and subsequent 8-point dose response curves were obtained using 3-fold dilutions from a maximum final concentration of 5 μM.
For experiments in which the test compound was used at a concentration of 1.0 μM, the symbol “+” indicates less than 30% Gcase activation; the symbol “++” indicates Gcase activation in the range of 30% up to 60%; and the symbol “+++” indicates Gcase activation greater than 60%. For experiments in which the test compound was used at a concentration of 0.1 μM, the symbol “*” indicates less than 10% Gcase activation; the symbol “**” indicates Gcase activation in the range of 10% up to 20%; and the symbol “***” indicates greater than 20% Gcase activation.

[2] = Compound solubility in water; format: physicochemical

SMILES	activation at 0.1 µM [1]	activation at 1 µM [1]	solubility [2]
Cc1cc(C(C)C)n2cnc(C(=O)N[C@H]3CCCc4ccccc43)c2n1 [III-35]	< 10%	< 30%	21.6 µg/mL (≈ 62 µM)
Cc1cc(C)n2cnc(C(=O)NC3(C)CCCc4ccccc43)c2n1 (stereo not drawn) [III-36]	< 10%	> 60%	11.9 µg/mL (≈ 35.6 µM)
Cc1cc(C(C)C)n2cnc(C(=O)NC3(C)CCOc4c(F)cccc43)c2n1 (stereo not drawn) [III-37]	< 10%	30 to 60%	28 µg/mL (≈ 73.2 µM)
[2H]C1(NC(=O)c2ncn3c(C)cc(C)nc23)CCCCc2ccccc21 (stereo not drawn) [III-38]	10 to 20%	> 60%	14.9 µg/mL (≈ 44.4 µM)
C#Cc1cccc(C(C)(C)NC(=O)c2ncn3c(C)cc(C(F)(F)F)nc23)c1 [III-40]	< 10%	< 30%	40.5 µg/mL (≈ 105 µM)
C#Cc1cccc(C(C)(C)NC(=O)c2ncn3c(C)cc(C)nc23)c1 [III-41]	10 to 20%	> 60%	7.6 µg/mL (≈ 22.9 µM)
C#Cc1ccc(C(C)(C)NC(=O)c2ncn3c(C)cc(C)nc23)cc1 [III-42]	< 10%	30 to 60%	18.7 µg/mL (≈ 56.3 µM)
CCC(C)(NC(=O)c1ncn2c(C)cc(C)nc12)c1ccc(F)cc1 (stereo not drawn) [III-43]	10 to 20%	> 60%	14.7 µg/mL (≈ 43.2 µM)
CCCCCOC1CCC(NC(=O)c2ncn3c(C(C)C)cc(C)nc23)CC1 (stereo not drawn) [III-44]	< 10%	30 to 60%	30.9 µg/mL (≈ 79.9 µM)
Cc1cc(C(C)C)n2cnc(C(=O)Nc3cccc4c3CCC4)c2n1 [III-45]	> 20%	> 60%	1 µg/mL (≈ 2.99 µM)
Cc1cc(C)n2cnc(C(=O)N[C@H]3CC[C@H](OC4CCC(C)(C)CC4)CC3)c2n1 [III-46]	10 to 20%	> 60%	4.9 µg/mL (≈ 12.3 µM)
CCCCCCO[C@H]1CC[C@H](NC(=O)c2ncn3c(C)cc(C)nc23)C1 [III-47]	< 10%	> 60%	30.6 µg/mL (≈ 85.4 µM)
CCCOc1cccc(C(C)(C)NC(=O)c2ncn3c(C4CC4)cc(COC)nc23)c1 [III-50]	10 to 20%	> 60%	31.3 µg/mL (≈ 74.1 µM)
CCCOc1cccc(C(C)(C)NC(=O)c2ncn3c(COC)cc(C4CC4)nc23)c1 [III-51]	> 20%	> 60%	10.5 µg/mL (≈ 24.9 µM)
CCCOc1cccc(C(C)(C)NC(=O)c2ncn3c(COC)cc(COC)nc23)c1 [III-52]	10 to 20%	> 60%	37.6 µg/mL (≈ 88.2 µM)
CCCOc1cccc(C(C)(C)NC(=O)c2ncn3c(COC)c(OC)c(C)nc23)c1 [III-53]	< 10%	30 to 60%	52.9 µg/mL (≈ 124 µM)
COCc1cc(C2CC2)n2cnc(C(=O)NC(C)(C)c3cccc(C#N)c3)c2n1 [III-54]	< 10%	< 30%	23.4 µg/mL (≈ 60.1 µM)
COCc1cc(C2CC2)n2cnc(C(=O)NC(C)(C)c3cccc(OC4CC4)c3)c2n1 [III-55]	10 to 20%	> 60%	26.3 µg/mL (≈ 62.5 µM)

SMILES	activation at 0.1 µM [1]	activation at 1 µM [1]	solubility [2]
COCc1cc(C2CC2)nc2c(C(=O)NC(C)(C)c3cccc(OC4CC4)c3)ncn12 [III-56]	10 to 20%	> 60%	14.4 µg/mL (≈ 34.2 µM)
COCc1cc(C(C)C)n2cnc(C(=O)NC(C)(C)c3cccc(OC4CC4)c3)c2n1 [III-57]	10 to 20%	> 60%	38.5 µg/mL (≈ 91.1 µM)
COCc1cc(C(C)C)nc2c(C(=O)NC(C)(C)c3cccc(OC4CC4)c3)ncn12 [III-58]	10 to 20%	> 60%	28.9 µg/mL (≈ 68.4 µM)
CCOCc1cccc(C(C)(C)NC(=O)c2ncn3c(COC)cc(C4CC4)nc23)c1 [III-59]	< 10%	30 to 60%	26.3 µg/mL (≈ 62.2 µM)
CCOCc1cccc(C(C)(C)NC(=O)c2ncn3c(C(C)C)cc(COC)nc23)c1 [III-60]	< 10%	< 30%	31.2 µg/mL (≈ 73.5 µM)
CCOCc1cccc(C(C)(C)NC(=O)c2ncn3c(COC)cc(C(C)C)nc23)c1 [III-61]	< 10%	30 to 60%	20.6 µg/mL (≈ 48.5 µM)
CO[C@H]1CC[C@H](C(C)(C)NC(=O)c2ncn3c(C)cc(C)nc23)CC1 [III-62]	< 10%	< 30%	27 µg/mL (≈ 78.4 µM)
CO[C@H]1CC[C@@H](C(C)(C)NC(=O)c2ncn3c(C)cc(C)nc23)CC1 [III-63]	< 10%	30 to 60%	36.2 µg/mL (≈ 105 µM)
Cc1cc(C)n2cnc(C(=O)Nc3ccc(-c4cscn4)cc3)c2n1 [III-64]	< 10%	30 to 60%	0.6 µg/mL (≈ 1.72 µM)
Cc1cc(C)n2cnc(C(=O)Nc3cccc4c3CCC4)c2n1 [III-65]	10 to 20%	> 60%	0.9 µg/mL (≈ 2.94 µM)
Cc1cc(C)n2cnc(C(=O)Nc3ccc(-c4ccco4)nc3)c2n1 [III-66]	< 10%	< 30%	< 0.01 µg/mL
Cc1cc(C)n2cnc(C(=O)NC3Cc4ccccc4C3)c2n1 [III-67]	< 10%	< 30%	18 µg/mL (≈ 58.8 µM)
Cc1cc(C)n2cnc(C(=O)NC3CCc4ccccc43)c2n1 (stereo not drawn) [III-68]	< 10%	< 30%	21 µg/mL (≈ 68.5 µM)
Cc1cc(C)n2cnc(C(=O)NC3CCc4ccccc4C3)c2n1 (stereo not drawn) [III-69]	< 10%	30 to 60%	16.6 µg/mL (≈ 51.8 µM)
CCCCCO[C@H]1CC[C@H](NC(=O)c2ncn3c(C)cc(C)nc23)CC1 [III-70]	10 to 20%	30 to 60%	19.6 µg/mL (≈ 54.7 µM)
Cc1cc(C)n2cnc(C(=O)NC3CCCc4ccccc43)c2n1 (stereo not drawn) [III-71]	< 10%	30 to 60%	70.7 µg/mL (≈ 221 µM)
COCc1cc(C2CC2)n2cnc(C(=O)NC3(C)CCOc4c(F)ccc(F)c43)c2n1 (stereo not drawn) [III-72]	< 10%	30 to 60%	23.6 µg/mL (≈ 55.1 µM)
CCOCc1cccc(C(C)(C)NC(=O)c2ncn3c(C4CC4)cc(COC)nc23)c1 [III-73]	< 10%	< 30%	31.6 µg/mL (≈ 74.8 µM)

Source: patent US10786508B2, “Substituted imidazo[1,5-A]-pyrimidines and their use in the treatment of medical disorders” (Lysosomal Therapeutics Inc., priority 2014, dated 2020)
